{"source": "paper PMC7522858", "about": "“The Synthetic Myeloperoxidase Inhibitor AZD3241 Ameliorates Dextran Sodium Sulfate Stimulated Experimental Colitis” (Frontiers in Pharmacology, 2020)", "biological_target": "T1, myeloperoxidase (MPO) (Homo sapiens, UniProt P05164)", "T1 construct": "isolated human MPO", "T1 sequence (P05164 165-273)": "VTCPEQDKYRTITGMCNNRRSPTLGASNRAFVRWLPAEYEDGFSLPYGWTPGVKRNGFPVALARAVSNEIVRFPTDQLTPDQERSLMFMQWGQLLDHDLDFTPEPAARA", "T1 sequence (P05164 279-745)": "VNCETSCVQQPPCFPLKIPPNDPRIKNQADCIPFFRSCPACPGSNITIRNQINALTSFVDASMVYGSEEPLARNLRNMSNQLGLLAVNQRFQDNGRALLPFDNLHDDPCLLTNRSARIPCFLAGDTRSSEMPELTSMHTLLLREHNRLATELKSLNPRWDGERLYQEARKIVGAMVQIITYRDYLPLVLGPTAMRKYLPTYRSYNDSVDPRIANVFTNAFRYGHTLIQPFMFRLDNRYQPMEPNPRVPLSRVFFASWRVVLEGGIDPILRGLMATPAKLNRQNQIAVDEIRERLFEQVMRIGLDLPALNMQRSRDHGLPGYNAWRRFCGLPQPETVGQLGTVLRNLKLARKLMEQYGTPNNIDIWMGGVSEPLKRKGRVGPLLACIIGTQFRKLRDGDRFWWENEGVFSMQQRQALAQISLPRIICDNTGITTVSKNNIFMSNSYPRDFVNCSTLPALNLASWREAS", "test": "luminol luminescence assay of isolated human MPO with H2O2 and NaCl", "format": "biochemical"}
{"smiles": "CC(C)OCCn1c(=S)[nH]c(=O)c2[nH]ccc21", "note": "[AZD3241]", "values": [{"measurement": "IC50", "value": "~1200", "unit": "nM"}]}
